From US6197774A, “Pyrimidine derivative” (Otsuka Pharmaceutical Co., Ltd., priority 1997, dated 2001) come the findings set out here.

For series [1], the system named is formation of NO in cell strain RAW 264.7. Description: Activity for inhibiting the formation of NO (LPS-stimulated RAW 264.7 cells, Griess reagent). The format is cell-based. Conditions: Mus musculus, RAW264.7, 1 × 10^-6 M, LPS 100 ng/ml, 24 hours, read-out: Ratio of formed amount of NO (reference culture medium = 100). The method, then: [Evaluation test of activity for inhibiting the formation of NO]
Pharmacological tests of pyrimidine derivatives obtained in Examples 1, 12, 14, 19, 22, 24, 29 and 42 used as test compounds were conducted as follows.
Preparation of culture media and method of cell culture were conducted in accordance with those described in J. Biol. Chem., Vol. 269, No. 1, pp. 711-715, (1994), and determination of formed amount of NO was conducted in accordance with the method described in Anal. Biochem., Vol. 126, pp. 131-138, (1982), respectively.
(1) Cell Culture and Inducible Synthesis of NO in the Cells by Stimulation with Lipopolysaccharide (LPS)
Cell strain RAW 264.7 (ATCC) derived from the macrophage of mouse was placed on each one of the wells on a microplate having 24-wells so as to put the cells in an amount of 1×10^5 cells/U (well). The cells were incubated for 24 hours in a phenol red free-RPMI-1640 culture medium (mfd. by GIBCO) to which 10% of fetal bovine serum, 100 U/ml of penicillin (mfd. by Dainippon Pharmaceutical Co., Ltd.) and 100 μg/ml of streptomycin (mfd. by Dainippon Pharmaceutical Co., Ltd.) were added.
Next, the reference culture medium was prepared by adding 2 mM of L-arginine (mfd. by Wako Pure Chemical Industries, Ltd.), 10 μM/ml of tetrahydrobiopterin (mfd. by ALEXIS) and 100 ng/ml of lipopolysaccharide (LPS)(mfd. by Sigma Chemical Co.) to a phenol red free-RPMI-1640 culture medium. While, the reference culture medium without containing LPS was used as the blanc culture medium.
On the other hand, the test culture medium, containing the test compound was prepared by adding 0.2% of the test compounds dissolved in dimethyl sulfoxide (DMSO) to the reference culture medium to adjust the final concentration of the test compound to 1×10^-6 M.
Each one of the blank culture medium, reference culture medium and test culture medium containing the test compound was added, respectively to the well on the micro-plate where the above-mentioned cell strain RAW 264.7 was placed, and was incubated for 24 hours.
(2) Measurement of the Amount of Formed NO
Quantitative measurement of NO cannot be made directly, due to its unstability. Therefore, the amount of NO is measured indirectly, thus by forming nitrous acid ion (hereunder referred to as NO2^-) which is stable product derived from NO by use of Griess reagent [consisting of 1% of sulfanylamide and 0.1% of sulfuric acid solution containing 0.1% N-(1-naphthyl)ethylenediamine dihydrochloride], and measure the amount of NO2^-.
Into the supernatant of each one of the culture media was admixed with the same amount of Griess reagent respectively, and subjected to reaction at room temperature for 10 minutes, then the optical absorbance at 540 nm of the thus reacted culture medium was measured. While, the optical absorbance of sodium nitrite solution diluted with the culture medium was referred to as the standard value, and the amount of NO2^- formed in each one of these incubated culture media was measured. The amounts of NO2^- formed in the reference culture medium and the test culture medium were corrected by using the value of formed amount of NO2^- in the blanc culture medium.
On the basis of that the ratio of amounts of NO2^- formed in the reference culture medium and that of formed in the test culture medium is corresponding to the ratio of amount of NO formed in the reference culture medium and that of formed in the test culture medium. Thus the amount of NO2^- formed in the reference culture medium is referred to as the value of 100, and the value of amount of NO2^- formed in the test culture medium is referred to as amount of NO formed in the test culture medium.

Series [2] can be described thus: Toxicity of compound against the cell strain RAW 264.7 (MTT). Type of series: cell-based. Conditions: mouse, raw 264.7 cells, 1 × 10^-6 M, read-out: Ratio of optical absorbance. As for the experimental part:
[Toxicity test (Toxicity of compound against the cell strain RAW 264.7)]
Test was conducted in accordance with the method as described in J. Immunol. Methods, Vol. 94, pp. 57-68, (1986). Cell strain RAW 264.7 derived from the macrophage of mouse was incubated similarly as in the method of Test Example 1(1). After that, MTT reagent (5 mg/ml) in 1/10 amount of the culture medium was added to the cells, and incubated for 4 hours. The supernatant of culture medium was taken off, then the cells were collected by using 1% SDS solution and the optical absorbance at 570-630 nm of the SDS solution was measured.

For `COCc1cc(=O)n2ncc(-c3ccc(Sc4ccccc4)cc3)c2[nH]1` [Example 1, 4,7-dihydro-5-methoxymethyl-7-oxo-3-(4-phenylthiophenyl)pyrazolo[1,5-a]pyrimidine], the activity at 1 µM in series [1] came out at 56%. The viability at 1 µM in series [2] is 109%.
